Data from article PMC10344917, “Affinity and cooperativity modulate ternary complex formation to drive targeted protein degradation” (Nature Communications, 2023).
Read-outs that look alike come from different tables or passages of the source.

Columns and labels:
BRD4-NanoLuc = molecular target: T1, BRD4-NanoLuc (Homo sapiens, UniProt O60885); assay: NanoBRET target engagement assay, live and permeabilized HEK293 cells (BRD4); assay type: cell-based; details: for Availability Index: RBA test cmpd / RBA of JQ1 benchmark, surrogate for permeability; for IC50: BRD4 NanoBRET TE
T1 construct: expressed in transfected cells; host or cells: HEK293
Experimental: We employed a NanoBRET-based target engagement (TE) assay as reported earlier^7 for evaluating PROTACs relative permeability. In summary, live and permeabilized HEK293 cells with SMARCA2 or BRD4-NanoLuc were used for measuring IC50 values of different PROTACs. The relative shift in the IC50 was evaluated as relative binding affinity (RBA) by taking the ratio of IC50 values of live and permeabilized cells. Availability index (AI), which is a surrogate for permeability can be calculated by taking a ratio of RBA of compounds to permeable benchmark molecules.
Relative Binding Affinity (RBA) = Live-cell TE IC50 / Permeabilized-cell TE IC50
Availability Index (AI) = RBAtest cmpd / RBApermeable benchmark
Availability Index (AI) greater than one is indicative of reduced permeability compared to the benchmark.

BRD4^BD2 = molecular target: T2, BRD4^BD2 (Homo sapiens, UniProt O60885); assay: SPR binary binding of PROTAC to BRD4^BD2-functionalized surface; details: 1:1 Langmuir binding model, SD N=2
T2 construct: ternary complex formation with both bromodomains, BRD4^BD1 and BRD4^BD2, independently; made in house

VHL/EloB/EloC (VBC) = molecular target: T3, VHL/EloB/EloC (VBC) (Homo sapiens, UniProt P40337); assay: SPR binary binding of PROTAC to VBC-functionalized surface
T3 construct: VHL (54-213), ElonginB (17-112) ElonginC (1-104); made in house
Experimental: (§1) SPR experiments were performed on a Biacore 8 K or T200 instrument (Cytiva). […] The running buffer during immobilization was PBS with 0.005% P20. Either high-density (3000-4000 RU) or low-density (300-400 RU) VBC-functionalized surfaces were created, followed by equilibration in the running buffer for 3 h.
PROTACs (10 mM stocks in 100% DMSO) were diluted to 400 nM in a running buffer (20 mM Tris pH 7.5, 200 mM NaCl, 0.02% P20). This stock solution was then serially diluted in the running buffer containing final 2% DMSO. […] For SMARCA2 analysis, biotinylated proteins were introduced on a Series S streptavidin (SA) sensor chip at high-density (3000-4000 RU).
(§2) Raw sensorgrams were processed by performing double reference subtraction, solvent correction, and analysis was done using Biacore Insight Evaluation Software. Kinetic analysis was performed by fitting data to a 1:1 Langmuir interaction model and a steady-state affinity model was used to evaluate equilibrium binding affinity.

[1] = molecular target: T4, VBC / BRD4^BD1 ternary complex (Homo sapiens, UniProt O60885+P40337); assay: SPR ternary complex binding, VBC surface with preformed PROTAC/BRD4 BD1 complex; details: for Kd: SPR, VHL, PROTAC, error SEM, N = 3, read-out: KLPT (ternary complex binding affinity)
T4 construct: VHL (54-213), ElonginB (17-112) ElonginC (1-104); BRD4 (44-168); His6 (N, cleaved yes); made in house
Experimental: as §1
(§3) PROTACs (10 mM in 100% DMSO) were initially prepared at 200 nM in a running buffer (20 mM Tris pH 8.0, 250 mM NaCl, 1 mM TCEP, 0.01% P20, 0.2 mg/ml BSA) with a concentration of 2% DMSO. This solution was mixed at 1:1 ratio with a solution of 5 μM of the SMARCA2 or BRD4 bromodomain protein in the running buffer. […] For ternary experiments, solutions were injected sequentially in single-cycle kinetic format without regeneration (contact time 60 s, flow rate 80 μL/min, dissociation time 300 s) using a stabilization period of 60 s and syringe wash (50% DMSO) between injections onto a low-density VBC-functionalized surface.
as §2

BRD4 [2] = molecular target: T5, BRD4 (Homo sapiens, UniProt O60885); assay: BRD4 degradation time course in A375 cells (MSD); assay type: cell-based; details: single concentration at or near maximal activity
T5 construct: endogenous in cells; host or cells: A375
Excerpt: To measure the rate of protein degradation, we treated A375 cells with a single concentration of each PROTAC and measured the decrease in target abundance over time as shown in Figs. 4b and5b.
(§4) MSD electrochemiluminescence signals were subtracted by the average background signal from wells with lysis buffer alone. Normalized MSD values (POC) for individual compound treated wells were acquired by dividing background-subtracted assay signal by signal from vehicle control wells (cells + 0.1% DMSO) and multiplying by 100. This POC data was graphed using a nonlinear regression curve fit xy analysis and a log(inhibitor) vs response —variable slope (four parameter) model for dose response curves (Graphpad Prism 9, San Diego, CA, USA). To calculate area under the curve, all points on the curve were connected and vertical lines were drawn from each point down to y = 0, generating a series of trapezoids. The area of each trapezoid was determined using the equation A = (1/2)(h)(b1 + b2), where h = 1 (distance between points), b1 = POC of the first point and b2 = POC of the second point. The sum of all trapezoids provides an approximate area under the curve (AUC). For half-life (t1/2) determination in time course studies, a one-phase decay model was used for curve fitting and the time at which the curve crossed 50 POC was determined through interpolation (Graphpad Prism 9, San Diego, CA, USA).

BRD4 [3] = molecular target: T5, BRD4; assay: BRD4 degradation, MSD assay, dose response; assay type: cell-based; design: AUC (area under the dose-response curve): unit not given beside the values; details: A375 cells; for Dmax: A-375, BRD4 degraded; for Dmax / DC50: MSD assay, 4 h timepoint; for AUC (area under the dose-response curve): BRD4 MSD assay, 4 h; for DC50: BRD4 degradation
Experimental: A375 cells were treated with SMARCA2 or BRD4 degraders for 2 h (4 h for BRD4) and generated lysates. SMARCA2 or BRD4 protein was measured with a variation of a sandwich ELISA that was assembled from commercially available antibodies as well as reagents and instrumentation procured from Meso Scale Discovery (MSD). Degradation parameter, DC50, is not suitable for PROTACs that induce partial/incomplete DR curves at a fixed time point; maximum drop in target protein level (Dmax) >>0. Conversely, the area under the curve (AUC) can be calculated as a degradation activity parameter for any DR curve, and it encompasses both the degradation potency (i.e., DC50) and efficacy (i.e., Dmax) of PROTACs.
A 1:3 compound dose-response titration was diluted in growth media (1:20), added to appropriate wells of a cell culture plate (1:10) and then assay plates were incubated at 37 °C, 5% CO2.
Plates were washed with 300 µL per well MSD wash buffer (MSD R61TX-1) between each step. Following the last incubation, plates were washed with MSD wash buffer then 150 µL of MSD read buffer (MSD R92TC-2) was added to each well. Plates were immediately read on a MSD plate reader (MSD Sector Imager 6000).
as §4

[4] = molecular target: T6, VBC / BRD4^BD2 ternary complex (Homo sapiens, UniProt O60885+P40337); assay: SPR ternary complex binding, VBC surface with preformed PROTAC/BRD4 BD2 complex; details: for Kd: SPR, VHL, PROTAC, error SEM, N = 3, read-out: KLPT (ternary complex binding affinity)
T6 construct: VHL (54-213), ElonginB (17-112) ElonginC (1-104); ternary complex formation with both bromodomains, BRD4^BD1 and BRD4^BD2, independently; His6 (N); made in house
Experimental: as §1, §3, §2

[5] = live HEK293 cells, read-out: Live-Cell TE
[6] = permeabilized HEK293 cells, read-out: Permeabilized-Cell TE
[7] = SPR, error SEM, N = 3, read-out: KLP (binary binding affinity between E3 ligase VHL and PROTAC)

| Compound | Availability Index (BRD4-NanoLuc) | IC50 (BRD4-NanoLuc; [5]) [nM] | IC50 (BRD4-NanoLuc; [6]) [nM] | Kd (BRD4^BD2) [nM] | Kd (VHL/EloB/EloC (VBC)) [nM] | α (cooperativity, KLP/KLPT) [1] | Kd [1] [nM] | Initial Degradation Rate (BRD4 [2]) [%/min] | Dmax (BRD4 [3]) [%] | AUC (area under the dose-response curve) (BRD4 [3]) | DC50 (BRD4 [3]) [nM] | α (cooperativity, KLP/KLPT) [4] | Kd [4] [nM] | Kd (VHL/EloB/EloC (VBC); [7]) [nM] |
| --- | --- | --- | --- | --- | --- | --- | --- | --- | --- | --- | --- | --- | --- | --- |
| Cc1ncsc1-c1ccc(CNC(=O)[C@@H]2C[C@@H](O)CN2C(=O)[C@@H](NC(=O)COCCOCc2cn(CCNC(=O)C[C@@H]3N=C(c4ccc(Cl)cc4)c4c(sc(C)c4C)-n4c(C)nnc43)nn2)C(C)(C)C)cc1 [Compound 13, (2S,4R)-1-((S)-2-(2-(2-((1-(2-(2-((S)-4-(4-chlorophenyl)-2,3,9-trimethyl-6H-thieno[3,2-f][1,2,4]triazolo[4,3-a][1,4]diazepin-6-yl)acetamido)ethyl)-1H-1,2,3-triazol-4-yl)methoxy)ethoxy)acetamido)-3,3-dimethylbutanoyl)-4-hydroxy-N-(4-(4-methylthiazol-5-yl)benzyl)pyrrolidine-2-carboxamide] | 73.87 | 7270 | 100 | 11.7 ± 0.9 | 17 ± 2 | 0.6 | 29 ± 3 | 0.76 | 78 | 309 | 726 | 1.7 | 10 ± 2 | – |
| Cc1ncsc1-c1ccc(CNC(=O)[C@@H]2C[C@@H](O)CN2C(=O)[C@@H](NC(=O)COCCOCCOCc2cn(CCNC(=O)C[C@@H]3N=C(c4ccc(Cl)cc4)c4c(sc(C)c4C)-n4c(C)nnc43)nn2)C(C)(C)C)cc1 [Compound 14, (2S,4R)-1-((S)-12-(tert-butyl)-1-(1-(2-(2-((S)-4-(4-chlorophenyl)-2,3,9-trimethyl-6H-thieno[3,2-f][1,2,4]triazolo[4,3-a][1,4]diazepin-6-yl)acetamido)ethyl)-1H-1,2,3-triazol-4-yl)-10-oxo-2,5,8-trioxa-11-azatridecan-13-oyl)-4-hydroxy-N-(4-(4-methylthiazol-5-yl)benzyl)pyrrolidine-2-carboxamide] | 126.63 | 12600 | 100 | 9.6 ± 0.9 | – | 0.8 | 33 ± 4 | 0.46 | 69 | 460 | 2260 | 1 | 26.5 ± 4 | 26 ± 5 |
| Cc1ncsc1-c1ccc(CNC(=O)[C@@H]2C[C@@H](O)CN2C(=O)[C@@H](NC(=O)COCCOCCOCCOCc2cn(CCNC(=O)C[C@@H]3N=C(c4ccc(Cl)cc4)c4c(sc(C)c4C)-n4c(C)nnc43)nn2)C(C)(C)C)cc1 [Compound 15, (2S,4R)-1-((S)-15-(tert-butyl)-1-(1-(2-(2-((S)-4-(4-chlorophenyl)-2,3,9-trimethyl-6H-thieno[3,2-f][1,2,4]triazolo[4,3-a][1,4]diazepin-6-yl)acetamido)ethyl)-1H-1,2,3-triazol-4-yl)-13-oxo-2,5,8,11-tetraoxa-14-azahexadecan-16-oyl)-4-hydroxy-N-(4-(4-methylthiazol-5-yl)benzyl)pyrrolidine-2-carboxamide] | 34.23 | 3920 | 110 | 16.2 ± 2.6 | – | 1.2 | 26.5 ± 4 | 0.21 | – | 733 | > 10000 | 0.8 | 39 ± 5 | 31 ± 4 |
| Cc1ncsc1-c1ccc(CNC(=O)[C@@H]2C[C@@H](O)CN2C(=O)[C@@H](NC(=O)COCCOCCOCCOCCOCc2cn(CCNC(=O)C[C@@H]3N=C(c4ccc(Cl)cc4)c4c(sc(C)c4C)-n4c(C)nnc43)nn2)C(C)(C)C)cc1 [Compound 16, (2S,4R)-1-((S)-18-(tert-butyl)-1-(1-(2-(2-((S)-4-(4-chlorophenyl)-2,3,9-trimethyl-6H-thieno[3,2-f][1,2,4]triazolo[4,3-a][1,4]diazepin-6-yl)acetamido)ethyl)-1H-1,2,3-triazol-4-yl)-16-oxo-2,5,8,11,14-pentaoxa-17-azanonadecan-19-oyl)-4-hydroxy-N-(4-(4-methylthiazol-5-yl)benzyl)pyrrolidine-2-carboxamide] | 164.81 | 18000 | 110 | 15.8 ± 2 | 33 ± 5 | 1 | 33 ± 5 | 0.08 | – | 900 | > 10000 | 0.7 | 49 ± 6 | – |
